{
  "source": "patent US20240000878A1",
  "about": "(priority 2022, published 2024)",
  "experiment_in_all_cases": "microbe, parasite or virus in culture",
  "assay_type_in_all_cases": "cell-based",
  "key": {"[1]": {"tested_on": "Respiratory Syncytial Virus (RSV) strain A2", "conditions": "for LRV (log reduction value): average reduction of virus vs average virus control; for antiviral activity against RSV (in words): summary of Table 2"}, "[2]": {"tested_on": "Influenza A/CA/07/09 (H1N1)", "conditions": "for LRV (log reduction value): average reduction of virus vs average virus control"}, "[3]": {"tested_on": "SARS-CoV-2 strain USA/PHC658/2021 (B.1.617.2; delta)", "conditions": "for LRV (log reduction value): average reduction of virus vs average virus control"}},
  "note": "Where “and” joins values, the source holds several entries; their conditions need not be identical. Identical values can stand only once. Counter-ions that a name gives are not always drawn.",
  "data": [
    {"compound": "NC(=O)c1ncn([C@@H]2O[C@H](CO)[C@@H](O)[C@H]2O)n1", "note": "[Ribavirin, reference compound]", "values": [
      {"measurement": "Log10 CCID50 virus per 0.2 mL", "setting": "[1]; concentration 100 μg/ml", "value": 1.30},
      {"measurement": "EC90", "setting": "[1]; human respiratory syncytial virus, 120 h, 90% effective concentration (reduce virus yield by 1 log10), regression analysis, day 5", "value": 4.6, "unit": "µg/mL"},
      {"measurement": "SI", "setting": "[1]; with the EC90, day 5", "value": "SI >22"},
      {"measurement": "EC90", "setting": "[2]; Influenza A virus, H1N1, 72 h", "value": 3.1, "unit": "µg/mL"},
      {"measurement": "Log10 CCID50 virus per 0.2 mL", "setting": "[2]; concentration 100 μg/ml", "value": 0.67},
      {"measurement": "SI", "setting": "[2]; with the EC90, day 3", "value": "SI >32"}
    ]},
    {"compound": "OC[C@@H](O)[C@@H](O)CO", "note": "[Erythritol]", "values": [
      {"measurement": "LRV (log reduction value)", "setting": "[3]; concentration 5 %, day 6", "value": 3.29},
      {"measurement": "LRV (log reduction value)", "setting": "[1]; concentration 5 %, day 5", "value": 1.84},
      {"measurement": "LRV (log reduction value)", "setting": "[2]; concentration 5 %, day 3", "value": 3.17},
      {"measurement": "antiviral activity against H1N1 (in words)", "setting": "[2]; summary of Table 1", "value": "showed antiviral activity"}
    ]},
    {"compound": "OC[C@@H](O)[C@H](O)[C@@H](O)CO", "note": "[Xylitol]", "values": [
      {"measurement": "LRV (log reduction value)", "setting": "[3]; concentration 5 %, day 6", "value": 3.84},
      {"measurement": "LRV (log reduction value)", "setting": "[1]; concentration 5 %, day 5", "value": 2.65},
      {"measurement": "antiviral activity against RSV (in words)", "setting": "[1]", "value": "antiviral activity"},
      {"measurement": "Log10 CCID50 virus per 0.2 mL", "setting": "[2]; concentration 5 %", "value": 6.00},
      {"measurement": "LRV (log reduction value)", "setting": "[2]; concentration 5 %, day 3", "value": 1.27}
    ]},
    {"compound": "CCC(CC)COC(=O)[C@H](C)N[P@](=O)(OC[C@H]1O[C@@](C#N)(c2ccc3c(N)ncnn23)[C@H](O)[C@@H]1O)Oc1ccccc1", "note": "[Remdesivir]", "values": [
      {"measurement": "EC90", "setting": "[3]; Severe acute respiratory syndrome coronavirus 2, 144 h", "value": 0.12, "unit": "µg/mL"},
      {"measurement": "Log10 CCID50 virus per 0.2 mL", "setting": "[3]; concentration 5 μg/ml", "value": 0.67},
      {"measurement": "SI", "setting": "[3]; with the EC90, day 6", "value": "SI >42"}
    ]},
    {"compound": "CN(C)CCC(c1ccc(Cl)cc1)c1ccccn1", "note": "(centres unmarked) [Chlorpheniramine Maleate, reference compound]", "values": [
      {"measurement": "Log10 CCID50 virus per 0.2 mL", "setting": "[3]; concentration 1 %", "value": "2.30 and 2.50"},
      {"measurement": "LRV (log reduction value)", "setting": "[3]; concentration 1 %, day 6", "value": 2.69},
      {"measurement": "Log10 CCID50 virus per 0.2 mL", "setting": "[1]; concentration 1 %", "value": 1.50},
      {"measurement": "LRV (log reduction value)", "setting": "[1]; concentration 1 %, day 5", "value": 2.99},
      {"measurement": "LRV (log reduction value)", "setting": "[2]; concentration 1 %, day 3", "value": 6.02}
    ]},
    {"compound": "OC[C@@H](O)[C@@H](O)[C@H](O)[C@@H](O)CO", "note": "[Sorbitol]", "values": [
      {"measurement": "Log10 CCID50 virus per 0.2 mL", "setting": "[3]; concentration 5 %", "value": "1.50 and 1.67"},
      {"measurement": "LRV (log reduction value)", "setting": "[3]; concentration 5 %, day 6", "value": 3.5},
      {"measurement": "Log10 CCID50 virus per 0.2 mL", "setting": "[1]; concentration 5 %", "value": 2.00},
      {"measurement": "LRV (log reduction value)", "setting": "[1]; concentration 5 %, day 5", "value": 2.49},
      {"measurement": "antiviral activity against RSV (in words)", "setting": "[1]", "value": "antiviral activity"},
      {"measurement": "LRV (log reduction value)", "setting": "[2]; concentration 5 %, day 3", "value": 1.47}
    ]}
  ]
}
